According to patent US11160881B2, “Dendrimer compositions for use in angiography” (The Johns Hopkins University, priority 2017, dated 2021):

System: leaky retinal blood vessels
Test: Fundus fluorescence angiogram imaging in lipid injected rat CNV model
Type: in vivo, brown Norway rats
Conditions: 5 mg/kg, imaging on day 21 after lipid injection, 488 filter
Protocol: White arrows indicate precise location of retinal leakage identified by D-FITC nanoparticles.
Dendrimer fluorescent probes were investigated for their application in longitudinal imaging of retinal inflammation and oxidative stress. […] Lipid was injected in brown Norway rats via subretinal injection at day 0 and the fluorescence angiogram imaging was performed on day 21. The rats were anesthetized and administered with sodium fluorescein or D-FITC (5 mg/kg) and the rats were imaged under Micron-3 fundus microscope using a 488 filter at different time points (10 mins, 1 hr and 4 hrs). […] Free FITC perfuses and clears from the retina quickly within 1 hr. At early time points (10 mins) post injection free FITC leaked from the retinal blood vessels (FIG. 2, white arrows) in the areas of inflammation causing fluorescence background thereby making in unclear the exact location of the leaky blood vessels.

- time to clearance from the retina: ≤ 1 h
SMILES: O=C1OC2(c3ccc(O)cc3Oc3cc(O)ccc32)c2ccccc21 [free FITC, sodium fluorescein]
